# Results: paper PMC5390258, “CMD-05, a novel promising clinical anti-diabetic drug candidate, in vivo and vitro studies” (Scientific Reports, 2017)
# Assays:
# TG, LDL-C = experiment: TG and LDL-C plasma levels in model rats; format: in vivo, rat
# Experimental: To establish model of T2DM, male rats (80–100 g, 9-week-old)[49] were fed high fat diet (HFD) (20% sugar, 10% lard, 10% egg yolk and 60% basal feed) after a week of normal diet. After 4 weeks, rats were injected once with low-dose streptozotocin (Solarbio, China) (STZ, 30 mg/kg i.p) to induce partial insulin deficiency, and then continuously fed HFD for 4 weeks after injection of STZ. Then the model rats were oral administrated drugs for 30 days. The body weights were recorded once a week.
# Oral glucose load, fasted and random blood samples were collected from rats on the 28th days, the 29th days and the last of the treatment of drugs, respectively. Plasma levels of insulin and GLP-1 were measured by ELISA kits (YuanYe, China) according to the manufacturer’s recommendation. The levels of HbA1c, Triglycerides (TG), total cholesterol (TC) and low density lipoprotein cholesterol (LDL-C) in blood samples were measured by commercial assay kits (JianCheng, Nanjing, China) according to the manufacturer’s directions.
# pancreatic islets = experiment: Morphologic observation on islet of model rats (HE, immunofluorescence, TEM); format: in vivo, rat
# Experimental: HE staining on paraffin section was performed as described in reports. In brief, paraffin section were rinsed with PBS, fixed with 4% paraformaldehyde (PFA) for 30 min and then washed by PBS. The pancreas tissue were stained with Hematoxylin-Eosin, afterwards, they were dehydrated in alcohols. Morphological changes of the pancreas tissue were observed under an optical microscope (Olympus, Japan) after mounted by neutral resins.
# Pancreas sections (8 μm) were cut in a cryostat and collected on superfrost microscope slides. The slides were stored at −20 °C till analysis. Immunofluorescent staining was used for detection of insulin (β cells) (1:100, Anti-Insulin antibody, Abcam), glucagon (α cells) (1:200, Anti-glucagon, Abcam). Briefly, the slides were blocked in 5% normal goat serum for 1 h in a humidified chamber. Slides were exposed to primary antibodies at a dilution of […] in antibody diluting solution at 4 °C overnight, washed in PBS, and exposed to appropriate secondary antibodies linked to the fluorescent probes (Goat Anti-Guinea pig IgG/FITC and Alexa Fluor 594-conjugated Goat Anti-Rabbit IgG) (Bioss and Proteintech, China) in antibody diluting solution for 1 h and DAPI (Beyotime, China) for 5 min in the dark. After washed by PBS, slides were mounted with a glycerol mounting medium. Images were collected using a fluorescent microscope (Nikon, Japan).
# For transmission electron microscopy, about 1 mm^3 tissue specimens were obtained from the same pancreas region of the control and experimental groups of rats, and fixed overnight in 2% glutaraldehyde (pH7.3) in 0.1 M phosphate buffer saline at 4 °C. Images of pancreatic islets were captured from random tissue sections using a transmission electron microscope.
# INS-1 cells = experiment: Proliferation of INS-1 cells (CCK-8); format: cell-based, rat; conditions: 1 × 10^−4 and 3 × 10^−5 M, 24 h, CCK-8, vs DMSO
# Experimental: The rat insulinoma cell line INS-1 (832/13) was obtained from the Department of endocrinology at 1st affiliated hospital of Chongqing medical university. Cells were cultured in RPMI 1640 (Gibco, USA) (11 mmol/l glucose, 100 units/ml penicillin, […] streptomycin, 10 mmol/l HEPES pH 7.4) supplemented with 10% FBS (Gibco, USA), 2 mmol/l L-glutamine, 1 mmol/l pyruvate, and 50 μmol/l β-mercaptoethanol. […] 10 μl of CCK-8 was then added and incubated at 37 °C and 5% CO2 for 1.5 h and […] (OD) was read at 460 nm with microplate reader. The OD value represents the proliferation activity.
# NCI-H716 cells = experiment: GLP-1 secretion in NCI-H716 cells; format: cell-based, human; conditions: 100 μM, 2 h; solvent group 6.6 ± 0.14 pmol/L
# Experimental: Human enteroendocrine NCI-H716 cells were maintained in suspension culture as described by the American Type Culture Collection guideline (ATCC). Two days before the experiments, cells were seeded into 12-well culture plates coated with Matrigel at 1 × 10^6 cells per well. Cells were incubated in RPMI 1640 containing 10% FBS at 37 °C for 48 h. […] After incubated for 2 h, GLP-1 concentrations from the supernatants were measured by ELISA kits (YuanYe, China).
# plasma DPP-IV = biological target: T1, plasma DPP-IV (Rattus norvegicus, UniProt P14740); experiment: Plasma DPP-IV activity after single oral dose in fasting normal rats; format: in vivo; conditions: single oral 4.5 mg/kg
# T1 construct: from tissue; host or cells: plasma of Sprague-Dawley rats
# T1 sequence (P14740 whole entry): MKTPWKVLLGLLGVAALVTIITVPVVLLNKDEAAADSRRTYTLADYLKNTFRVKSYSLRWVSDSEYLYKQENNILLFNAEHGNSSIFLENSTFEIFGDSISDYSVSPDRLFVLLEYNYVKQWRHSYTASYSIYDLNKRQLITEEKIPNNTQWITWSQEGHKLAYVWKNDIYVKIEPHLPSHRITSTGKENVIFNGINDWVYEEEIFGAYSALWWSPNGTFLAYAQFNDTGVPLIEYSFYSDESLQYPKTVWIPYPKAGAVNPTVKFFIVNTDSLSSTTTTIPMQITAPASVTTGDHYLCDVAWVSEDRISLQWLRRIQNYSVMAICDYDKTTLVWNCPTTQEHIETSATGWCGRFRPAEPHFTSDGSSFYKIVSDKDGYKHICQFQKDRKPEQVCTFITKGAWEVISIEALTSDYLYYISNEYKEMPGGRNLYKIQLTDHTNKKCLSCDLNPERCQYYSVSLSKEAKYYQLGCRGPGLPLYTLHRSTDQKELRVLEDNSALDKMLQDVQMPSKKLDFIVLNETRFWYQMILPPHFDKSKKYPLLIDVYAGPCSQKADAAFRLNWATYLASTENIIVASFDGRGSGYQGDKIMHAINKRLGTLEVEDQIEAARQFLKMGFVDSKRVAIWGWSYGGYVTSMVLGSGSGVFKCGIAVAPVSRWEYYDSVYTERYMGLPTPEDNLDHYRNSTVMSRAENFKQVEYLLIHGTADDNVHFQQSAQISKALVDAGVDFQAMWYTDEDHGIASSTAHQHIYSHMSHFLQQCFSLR
# Experimental: Oral glucose load, fasted and random blood samples was collected to measure DPP-IV activity at the 28th days, the 29th days and the last treatment of the CMD-05. DPP-IV enzyme assay was carried out according to a published method. The enzyme reaction was initiated by adding 5 mM Gly-Pro-AMC as a substrate. After 25 min of incubation, fluorescence of AMC released by the reaction was measured using a spectrofluorometer at an excitation wavelength of 353 nm and emission wavelength of 442 nm.
# Blood samples were collected after administration of CMD-05 (4.5 mg/kg) at 15 min, 30 min, 1 h, 2 h, 4 h, 12 h, and 24 h to measure the DPP-IV activity in fasting normal rats, the concrete steps refer to the preceding.
# 293 cells = experiment: Cytotoxicity in 293 cells (CCK-8); format: cell-based; conditions: 12 h
# Experimental: (§1) The toxicities of CMD-05 on HT22, 293 and […] cell lines was assessed using Cell Counting Kit-8 (CCK-8) (Biosharp, China). Briefly, the cells were plated on 96-well plates. […] The absorbance at 450 nm was measured using a microplate spectrophotometer.
# LO-2 cells = experiment: Cytotoxicity in LO-2 cells (CCK-8); format: cell-based; conditions: 1 × 10^−4 M, 12 h
# Experimental: as §1
# Kunming mice = experiment: Acute toxicity in mice; format: in vivo
# Experimental: For acute hypoglycemia test, male rats (150–250 g) were used. […].
# Acute toxicological signs of included activities, nervous system response, autonomic nervous system response and death of mice were observed after a single oral dose of 2000 mg/kg.
smiles,measurement,setting,value
N#C[C@@H]1CCCN1C(=O)CN(C(=O)CCCCCl)C12CC3CC(CC(O)(C3)C1)C2 [CMD-05],reduction of LDL-C level,"TG, LDL-C; 0.5 mg/kg",9%
same,reduction of TG level,"TG, LDL-C; 0.5 mg/kg",22.41%
same,reduction of LDL-C level,"TG, LDL-C; 1.5 mg/kg",12.60%
same,reduction of TG level,"TG, LDL-C; 1.5 mg/kg",37.07%
same,reduction of LDL-C level,"TG, LDL-C; 4.5 mg/kg",17.91%
same,reduction of TG level,"TG, LDL-C; 4.5 mg/kg",42.67%
same,plasma lipids levels,"TG, LDL-C; 4.5 mg/kg continuously for 30 days",decreased to normal level
same,distribution of β cells (insulin/glucagon double staining),pancreatic islets; 30 days treatment,obviously improved
same,mass of α-cells (insulin/glucagon double staining),pancreatic islets; 30 days treatment,mildly reduced
same,morphology of pancreatic islets (HE staining),pancreatic islets; 30 days treatment,prevent islet from damage
same,secretory granules in β cells (transmission electron microscopy),pancreatic islets; compared with the model,obviously increased
same,cells viabilities (proliferation) of INS-1 cells,INS-1 cells,increased
same,GLP-1 secretion,NCI-H716 cells,7.5 ± 0.44 pmol/L
same,inhibition at 4.5 mg/kg,"plasma DPP-IV; rat, at 4 hours after the dose, read-out: maximum inhibition of plasma DPP-IV activity",~90%
same,duration of plasma DPP-IV inhibition greater than 50%,plasma DPP-IV,at least 15 hours
same,time of maximum inhibition of plasma DPP-IV activity,plasma DPP-IV,4 h
same,cytotoxicity (cell viability),293 cells; 1 × 10^−4 M,slightly reduced cell viability
same,cytotoxicity (cell viability),293 cells; 3 × 10^−6 to 1 × 10^−5 M,did not induce significant cytotoxicity
same,cytotoxicity (cell viability),LO-2 cells,no detectable toxic effect
same,maximum tolerance dose,Kunming mice; oral,> 2000 mg/kg
same,acute toxicity signs,Kunming mice; single oral dose of 2000 mg/kg,no toxicological signs
